Results published in paper PMC10906223 (JCI Insight, 2024).
Where “and” joins values, the source holds several entries; their conditions need not be identical. Identical values can stand only once.

Assays:
diabetic NOD mice [1] = assay: Intraperitoneal glucose tolerance test in NOD mice; assay type: in vivo, mouse; parameters: Blood glucose, IPGTT (Figure 6D): unit not given here; settings: for Blood glucose, IPGTT (Figure 6D): Diabetic
Description: Following 5 hours of fasting, NOD mice were injected with 20% sterile glucose solution (i.p. […] body weight; at the volume of 10 times of the body weight). Blood glucose levels were measured before injection by tail nick. Following injection, blood glucose levels were measured at time points of 15, 30, 45, 60, 90, 120, and 180 minutes by using the glucometer. […] Glucose tolerance test was done at 3 time points (8, 14, and 24 hours) after the final WCDD301 administration. Data were plotted using GraphPad Prism software version 4.

[2] = system: primary mouse hepatocytes; assay: Glucose output from primary mouse hepatocytes; assay type: cell-based
Description: Primary hepatocyte culture was performed following previous publications ([63], [64]). Briefly, livers were extracted from C57BL/6J (n = 5), rinsed in HBSS, and minced. The minced tissue was treated with collagenase P solution (9 μg/mL) neutralized by DMEM containing 10% FBS. Following settling of undigested tissue, the supernatant was collected and centrifuged at 490g for 1 minute. The pellet was treated with red blood cell lysis buffer (8.26 g NH4Cl, 1 g NaHCO3, 0.037 g Na2EDTA in 1,000 mL of distilled water) for 3 minutes, diluted with HBSS containing 6% FBS, and centrifuged at 490g for 1 minute. The resulting pellet was washed 2 times using HBSS containing 6% FBS (290g, 1 minute, and 190g, 1 minute) and resuspended in HBSS containing 2% FBS. The procedure was repeated 2 additional times on the undigested tissue. The collected suspension was sequentially filtered through a 500 μm Steel Basket-Strainer (pluriSelect) and Falcon 100 µm Cell Strainer (Corning). After centrifugation (190g, 1 minute), the pellet was resuspended in DMEM (containing 10% FBS, 100 U/mL penicillin, and 100 μg/mL streptomycin), seeded in a 48-well cell culture plate (7.5 × 10^5 cells/ well), and incubated in a cell culture incubator, overnight. Cell viability and attachment were determined by trypan blue staining.

[3] = system: mouse dispersed islet cells; assay: Immunofluorescence: EphA4 intensity in glucagon+ mouse dispersed islet cells; assay type: cell-based;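 on EphA4 intensity: ImageJ intensity within ROI drawn around each glucagon+ cell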
Description: (§1) Coverslips were treated with WCDD301, preclustered Ephrin-A5 Fc, or preclustered Fc in the following sequential order: KRBH (11 mM glucose, 30 minutes), KRBH (1 mM glucose, 60 minutes), KRBH (1 mM glucose, 30 minutes), and KRBH (11 mM glucose, 60 minutes). After treatment, coverslips were washed once in PBS, fixed in 2% paraformaldehyde in PBS (30 minutes), and again washed in PBS. […] Following wash in PBS, coverslips were incubated in a mixture of Alexa Fluor 555 Phalloidin (Cell Signaling Technology, catalog 8953) and secondary antibodies (goat anti-rabbit Alexa Fluor 488, catalog A-21094, 1:1,000, Molecular Probes; and goat anti-mouse Alexa Fluor 633, catalog A21052, 1:1,000, Life Technologies) for 1 hour at RT. Both primary and secondary antibodies were diluted in blocking buffer containing 0.05% Tween 20. Coverslips were washed using PBS and counterstained by using DAPI (1:1,000) for 10 minutes. Following 2 washes in PBS, coverslips were mounted on glass slides using ProLong Glass Antifade Mountant (Invitrogen, catalog P36980). Images were captured using the Zeiss LSM880 microscope with a Plan-Apochromat 63× 1.4 NA objective lens by setting dual-band dichroic/filter for 405, 488, 561, and 633 nm laser excitation. For each slide, 25–30 fields of view were scanned, and in each field of view, 3–5 cells were imaged. […] Values of intensity were compared among groups using 1-way ANOVA, α = 0.05.

[4] = system: human dispersed islet cells; assay: Immunofluorescence: F-actin intensity in glucagon+ human dispersed islet cells; assay type: cell-based;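 on F-actin intensity: ImageJ intensity within ROI drawn around each glucagon+ cell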
Description: as §1

diabetic NOD mice [5] = assay: Plasma glutamine in NOD mice; assay type: in vivo, mouse; settings: WCDD301 group of NOD mice; quantity not given
Description: Terminal blood was collected into microfuge tubes containing K2-EDTA (supplemented by 45 mM phenylmethylsulphonyl fluoride and 0.77 μM aprotinin) through cardiac puncture. Plasma was separated by centrifugation (2,000g for 10 minutes at 4°C) and kept at –80°C until analysis. Plasma samples with hemolysis were excluded from the study. […] Values of BUN, creatinine, ALB, ALT, and AST were determined by a Roche Cobas C501 Autoanalyzer as performed by the Washington University Diabetes Research Center Translational Diagnostics Core. Reference intervals of blood chemistry parameters for inbred NOD mice were extracted from the Mouse Phenome Database (https://phenome.jax.org/).

CC(=O)OCC(N)(COC(C)=O)COC(C)=O [WCDD301, 2-(acetoxymethyl)-2-aminopropane-1,3-diyl diacetate]
Blood glucose, IPGTT (Figure 6D) (diabetic NOD mice [1]; 8h after WCDD301 dosing (first group, c4-c6), 0 min): 135 and 151 and 125 | Blood glucose, IPGTT (Figure 6D) (diabetic NOD mice [1]; 8h after WCDD301 dosing (first group, c4-c6), 15 min): 160 and 159 and 158 | Blood glucose, IPGTT (Figure 6D) (diabetic NOD mice [1]; 8h after WCDD301 dosing (first group, c4-c6), 30 min): 175 and 165 and 162 | Blood glucose, IPGTT (Figure 6D) (diabetic NOD mice [1]; 8h after WCDD301 dosing (first group, c4-c6), 45 min): 165 and 175 | Blood glucose, IPGTT (Figure 6D) (diabetic NOD mice [1]; 8h after WCDD301 dosing (first group, c4-c6), 60 min): 155 and 145 and 135 | Blood glucose, IPGTT (Figure 6D) (diabetic NOD mice [1]; 8h after WCDD301 dosing (first group, c4-c6), 90 min): 150 and 135 and 114 | Blood glucose, IPGTT (Figure 6D) (diabetic NOD mice [1]; 8h after WCDD301 dosing (second group, c7-c9), 0 min): 140 and 151 and 137 | Blood glucose, IPGTT (Figure 6D) (diabetic NOD mice [1]; 8h after WCDD301 dosing (second group, c7-c9), 15 min): 210 and 206 and 205 | Blood glucose, IPGTT (Figure 6D) (diabetic NOD mice [1]; 8h after WCDD301 dosing (second group, c7-c9), 30 min): 340 and 307 and 321 | Blood glucose, IPGTT (Figure 6D) (diabetic NOD mice [1]; 8h after WCDD301 dosing (second group, c7-c9), 45 min): 380 and 356 and 372 | Blood glucose, IPGTT (Figure 6D) (diabetic NOD mice [1]; 8h after WCDD301 dosing (second group, c7-c9), 60 min): 320 and 395 and 372 | Blood glucose, IPGTT (Figure 6D) (diabetic NOD mice [1]; 8h after WCDD301 dosing (second group, c7-c9), 90 min): 295 and 386 and 368 | Blood glucose, IPGTT (Figure 6D) (diabetic NOD mice [1]; 8h after WCDD301 dosing (second group, c7-c9), 120 min): 135 and 159 and 148 | Blood glucose, IPGTT (Figure 6D) (diabetic NOD mice [1]; 14h after WCDD301 dosing, 0 min): 119 and 140 and 138 | Blood glucose, IPGTT (Figure 6D) (diabetic NOD mice [1]; 14h after WCDD301 dosing, 15 min): 520 and 480 and 450 | Blood glucose, IPGTT (Figure 6D) (diabetic NOD mice [1]; 14h after WCDD301 dosing, 30 min): 650 and 550 | Blood glucose, IPGTT (Figure 6D) (diabetic NOD mice [1]; 14h after WCDD301 dosing, 45 min): 650 | Blood glucose, IPGTT (Figure 6D) (diabetic NOD mice [1]; 14h after WCDD301 dosing, 60 min): 650 and 550 and 468 | Blood glucose, IPGTT (Figure 6D) (diabetic NOD mice [1]; 14h after WCDD301 dosing, 90 min): 555 and 450 and 350 | Blood glucose, IPGTT (Figure 6D) (diabetic NOD mice [1]; 14h after WCDD301 dosing, 120 min): 410 and 325 and 286 | Blood glucose, IPGTT (Figure 6D) (diabetic NOD mice [1]; 14h after WCDD301 dosing, 180 min): 158 and 151 and 140 | Blood glucose, IPGTT (Figure 6D) (diabetic NOD mice [1]; 24h after WCDD301 dosing, 0 min): 320 and 290 and 325 | Blood glucose, IPGTT (Figure 6D) (diabetic NOD mice [1]; 24h after WCDD301 dosing, 15 min): 590 and 480 and 552 | Blood glucose, IPGTT (Figure 6D) (diabetic NOD mice [1]; 24h after WCDD301 dosing, 30 min): 650 and 590 and 610 | Blood glucose, IPGTT (Figure 6D) (diabetic NOD mice [1]; 24h after WCDD301 dosing, 45 min): 650 | Blood glucose, IPGTT (Figure 6D) (diabetic NOD mice [1]; 24h after WCDD301 dosing, 60 min): 590 and 600 and 580 | Blood glucose, IPGTT (Figure 6D) (diabetic NOD mice [1]; 24h after WCDD301 dosing, 90 min): 520 and 590 and 570 | Blood glucose, IPGTT (Figure 6D) (diabetic NOD mice [1]; 24h after WCDD301 dosing, 120 min): 490 and 520 and 505 | Blood glucose, IPGTT (Figure 6D) (diabetic NOD mice [1]; 24h after WCDD301 dosing, 180 min): 510 and 550 and 512 | Glucose tolerance (diabetic NOD mice [1]; NOD mice versus placebo-treated diabetic control): Glucose tolerance was improved | Glucagon-stimulated glucose output ([2]; 100 nM glucagon, 3 μM WCDD301): did not alter glucagon-stimulated glucose output | Glucose output from hepatocytes (Figure 6G) ([2]; WCDD301 +, Glucagon +): 15.2 and 14.9 and 17.2 and 21 | Effect on EphA4 intensity ([3]; dispersed mouse islet cells): increased EphA4 intensity | EphA4 intensity ([3]; mouse cells, individual values, Figure 3H): 35.0 and 29.0 and 43.3 and 17.8 and 36.0 and 30.0 and 27.0 and 37.0 and 31.0 and 41.7 and 27.2 and 38.0 and 32.0 and 32.1 and 39.0 and 33.0 and 19.7 | F-actin intensity ([4]; human cells, individual values, Figure 3E): 9.0 and 7.2 and 6.5 and 10.4 and 8.2 and 4.2 and 10.3 and 9.6 and 6.8 | Effect on intracellular F-actin ([4]; α cells, human donors): increased intracellular F-actin density | Plasma glutamine (Figure 7B) (diabetic NOD mice [5]): 0.7 and 0.74 and 0.65 and 0.71
